In article PMC4389443 (Respiratory Research, 2015):
Entries after “also recorded” stand apart in the source; their conditions may differ. Where two headings read alike, the source gives them in different places.

Key:
Plasma stability [1] = assay type: in vitro ADME; settings: dog plasma, 1 hour incubation
[2] = target: T1, VAP-1/SSAO in gonadal fat tissue homogenate (Oryctolagus cuniculus, UniProt A0A5F9CS97); assay: SSAO activity, gonadal fat tissue homogenate; assay type: biochemical; settings: rabbit
T1 sequence (A0A5F9CS97 1-763): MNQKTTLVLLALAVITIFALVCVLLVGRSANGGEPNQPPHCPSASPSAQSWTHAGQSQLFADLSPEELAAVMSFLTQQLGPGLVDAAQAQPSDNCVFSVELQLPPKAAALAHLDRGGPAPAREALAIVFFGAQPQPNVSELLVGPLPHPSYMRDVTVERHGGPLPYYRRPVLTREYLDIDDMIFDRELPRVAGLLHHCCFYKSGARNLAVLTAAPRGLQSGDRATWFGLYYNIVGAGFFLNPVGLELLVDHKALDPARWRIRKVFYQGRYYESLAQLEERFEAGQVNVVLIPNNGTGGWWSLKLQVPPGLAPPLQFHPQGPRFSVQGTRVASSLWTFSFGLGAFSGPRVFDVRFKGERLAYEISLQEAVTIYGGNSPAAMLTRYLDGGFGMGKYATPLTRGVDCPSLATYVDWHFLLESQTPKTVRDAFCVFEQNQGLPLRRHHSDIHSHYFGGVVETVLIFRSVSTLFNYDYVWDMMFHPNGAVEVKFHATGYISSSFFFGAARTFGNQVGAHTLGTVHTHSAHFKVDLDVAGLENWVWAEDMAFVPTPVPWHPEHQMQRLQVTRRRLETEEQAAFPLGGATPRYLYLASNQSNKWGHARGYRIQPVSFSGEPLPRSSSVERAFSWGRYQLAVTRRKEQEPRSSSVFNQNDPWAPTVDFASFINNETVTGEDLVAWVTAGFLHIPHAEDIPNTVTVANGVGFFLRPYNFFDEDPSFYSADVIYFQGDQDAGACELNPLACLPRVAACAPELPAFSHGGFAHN

Water solubility = assay type: physicochemical
carbonic anhydrase II = carbonic anhydrase II (Homo sapiens, UniProt P00918); assay: Carbonic anhydrase II activity; assay type: biochemical
HepG2 cells = assay: Phospholipidosis in HepG2 cells; assay type: cell-based; settings: highest concentration tested 100 μM
Plasma stability [3] = assay type: in vitro ADME; settings: rat plasma, 1 hour incubation
Plasma stability [4] = assay type: in vitro ADME; settings: human plasma, 1 hour incubation
C57/BL6 mice = assay: Cecal ligation and puncture (CLP) induced sepsis
Swiss mice = assay: LPS airway inflammation, 24 hour time point; assay type: in vivo, mouse; settings: 24 hours after LPS
Description: Given the short half-life of PXS-4728, a second dose was administered to ensure that newly synthesized SSAO would also be blocked.

BALB/c mice [5] = assay: LPS airway inflammation, 6 hour time point; settings: 6 hours after LPS
BALB/c mice [6] = assay: Klebsiella pneumoniae lung infection
BALB/c mice [7] = assay: CXCL1/KC induced cremaster inflammation, intravital microscopy; assay type: in vivo, mouse; settings: 6 mg.kg^−1 oral, 1 hour prior to rCXCL1
Description: BALB/c mice were anesthetized and 500 ng of murine rCXCL1 in 0.2 ml of saline was administered locally by s.c. injection beneath the right scrotal skin using a 30-G needle, 2 hours before exteriorization. The left cremaster was then prepared for intravital microscopy, as previously described. Briefly, an incision was made in the scrotal skin to expose the left cremaster muscle, which was then carefully removed from the associated fascia. A lengthwise incision was made on the ventral surface of the cremaster muscle using a cautery. The testicle and the epididymis were separated from the underlying muscle and were moved into the abdominal cavity. The muscle was then spread out over an optically clear viewing pedestal and was secured along the edges with a 4–0 suture. […] A video camera (CDD; Sony) was used to project the images onto a monitor, and the images were recorded for playback analysis using a conventional DVD. […] The number of rolling and adherent leukocytes was determined offline during video playback analysis. […] The flux of rolling cells was measured as the number of rolling cells passing by a given point in the venule per minute. A leukocyte was considered to be adherent if it remained stationary for at least 30 s, and total leukocyte adhesion was quantified as the number of adherent cells within a 100 μm length of venule.

BALB/c mice [8] = assay: House dust mite/Rhinovirus exacerbated asthma model; assay type: in vivo, mouse; settings: 24 hours post RV1b infection
Description: Study performed at the University of Newcastle under local ethics committee. BALB/c mice were sensitized and challenged intranasally to 50 μg of crude HDM extract (Dermatophagoides pteronyssinus extract was obtained from Greer Laboratories) on days 0, 1 and 2 followed by four exposures of 5 μg HDM daily from day 14 to day 17 delivered in 50 μl of sterile saline. Animals were then infected on day 18 with infective Human Rhinovirus 1b RV1B41 (2.5 × 10^6 median tissue culture infective dose) intranasally. Mice were intranasally administered 50 μl infective or ultraviolet light (UV)–inactivated RV1B41. Mice were euthanized 24 hours after the rhinovirus challenge. BAL analysis was performed for total and differential counts and airway hyperreactivity (AHR) was assessed invasively by measurement of total lung resistance and dynamic compliance (BUXCO) in response to methacholine challenge as previously described. […]. Dose of azithromycin was chosen based on previously described findings, in respiratory viral infection models.

[9] = 6 hours, 6 mg.kg^−1 oral 1 hour prior to surgery
[10] = 6 hours, PXS-4728A 6 mg.kg^−1, dexamethasone 5 mg.kg^−1, oral 1 hour prior to surgery
[11] = 4 mg/kg pre-treatment, 6 mg/kg at 6 hours
[12] = 24 hours, PXS-4728A 6 mg.kg^−1, dexamethasone 10 mg.kg^−1, oral 1 hour prior to infection

## CC(C)(C)NC(=O)c1ccc(OC/C(=C/F)CN)cc1 [PXS-4728A]
Plasma stability [1]
  Plasma stability, remaining: > 90%
[2]
  IC50: < 10 nM
Water solubility; Figure 1, read-out: Solubility (H2O)
  solubility: > 10000 µg/mL
Water solubility; pH 7.4, aqueous buffer, read-out: Water solubility
  solubility: > 10000 µg/mL
Carbonic anhydrase II
  Activity for carbonic anhydrase II: removing all activity
HepG2 cells
  Phospholipidosis: does not induce
Plasma stability [3]
  Plasma stability, remaining: > 90%
Plasma stability [4]
  Plasma stability, remaining: > 90%
C57/BL6 mice; [9]
  Myeloperoxidase in the lung: reduction
  Neutrophils in bronchoalveolar lavage: reduction
  Total cells in bronchoalveolar lavage: reduction
C57/BL6 mice; [10]
  Peritoneal neutrophils: not affected
  Total peritoneal inflammatory cells: not affected
C57/BL6 mice; treated 1 hour prior and daily thereafter, control animals 50%, p = 0.057
  Survival rate: 90%
Swiss mice
  Circulating neutrophils: had no effect
  Total cells in blood: had no effect
Swiss mice; [11]
  Influx of neutrophils in BALF: reduced
  Influx of total cells in BALF: reduced
BALB/c mice [5]; PXS-4728A 0.2 or 2 mg.kg^−1, dexamethasone 10 mg.kg^−1, oral 1 hour prior
  Influx of neutrophils in BALF: dampened migration significantly; also recorded: concentration-dependently reduced
BALB/c mice [5]; PXS-4728A 0.2 or 2 mg.kg^−1 oral 1 hour prior
  Influx of total cells in BALF: concentration-dependently reduced
BALB/c mice [6]; [12]
  Neutrophil migration into the airway spaces (BALF): significantly dampened
  Total leukocyte migration into the airway spaces (BALF): significantly dampened
BALB/c mice [6]; 24 hours, PXS-4728A 6 mg.kg^−1, dexamethasone 10 mg.kg^−1, vehicle 7.59
  Log 10-CFU in the lung (bacterial load), average: 8.27 LOG 10-CFU
BALB/c mice [6]; treated 1 hour prior to infection and daily thereafter
  Survival: not compromised
BALB/c mice [7]
  CXCL1/KC increased number of adhering leukocytes: abolished
  CXCL1/KC increased number of rolling leukocytes: abolished
BALB/c mice [8]; PXS-4728A 2, azithromycin 25 mg.kg^−1 ip.
  Airways hyperreactivity to methacholine challenge: significantly reduced
BALB/c mice [8]; PXS-4728A 2, dexamethasone 2, azithromycin 25 mg.kg^−1 ip.
  Total BALF neutrophils: reduced
